The target of assay [1] is T1, human calcium channel α1I subunit (α1I channel) (Homo sapiens, UniProt Q9P0X4, I1040V).
T1 construct: expressed in transfected cells
Put plainly: Calcium influx measured by FLIPR in B21 cells. In kind it is cell-based. As to conditions: for IC50: B21 cell induced by 0.1 uM tetracycline, mean ± S.E., n=3, read-out: IC50 for inhibition of calcium influx. As to the method:
Intracellular calcium concentration was monitored by the FLIPR™ technique (Molecular Devices, Sunnyvale, Calif.). Briefly, the cells were seeded into black 96 well plates with clear bottoms at a density of 35,000 cells/well and cultured for 5 hr.

For assay [2], the system named is T-type currents in thalamic (ventrobasal complex) neurons. Particulars: physiologically relevant doses; Coulter et al. 1989; cited from earlier work.
Assay [3] concerns T-type Ca^2+ current in DRG neurons. Particulars: freshly dissected DRG neurons of adult rats; Todorovic and Lingle 1998; cited from earlier work.
Assay [4] concerns the target α1I T-type calcium channel (Homo sapiens, UniProt Q9P0X4, I1040V). Put plainly: Whole-cell patch clamp (voltage-clamp) recordings on the B21 cell line. On the technique in general: In patch-clamp work, channel activity is measured electrically.

T1 sequence (Q9P0X4 1-1981 isoform Q9P0X4-3 I1005V): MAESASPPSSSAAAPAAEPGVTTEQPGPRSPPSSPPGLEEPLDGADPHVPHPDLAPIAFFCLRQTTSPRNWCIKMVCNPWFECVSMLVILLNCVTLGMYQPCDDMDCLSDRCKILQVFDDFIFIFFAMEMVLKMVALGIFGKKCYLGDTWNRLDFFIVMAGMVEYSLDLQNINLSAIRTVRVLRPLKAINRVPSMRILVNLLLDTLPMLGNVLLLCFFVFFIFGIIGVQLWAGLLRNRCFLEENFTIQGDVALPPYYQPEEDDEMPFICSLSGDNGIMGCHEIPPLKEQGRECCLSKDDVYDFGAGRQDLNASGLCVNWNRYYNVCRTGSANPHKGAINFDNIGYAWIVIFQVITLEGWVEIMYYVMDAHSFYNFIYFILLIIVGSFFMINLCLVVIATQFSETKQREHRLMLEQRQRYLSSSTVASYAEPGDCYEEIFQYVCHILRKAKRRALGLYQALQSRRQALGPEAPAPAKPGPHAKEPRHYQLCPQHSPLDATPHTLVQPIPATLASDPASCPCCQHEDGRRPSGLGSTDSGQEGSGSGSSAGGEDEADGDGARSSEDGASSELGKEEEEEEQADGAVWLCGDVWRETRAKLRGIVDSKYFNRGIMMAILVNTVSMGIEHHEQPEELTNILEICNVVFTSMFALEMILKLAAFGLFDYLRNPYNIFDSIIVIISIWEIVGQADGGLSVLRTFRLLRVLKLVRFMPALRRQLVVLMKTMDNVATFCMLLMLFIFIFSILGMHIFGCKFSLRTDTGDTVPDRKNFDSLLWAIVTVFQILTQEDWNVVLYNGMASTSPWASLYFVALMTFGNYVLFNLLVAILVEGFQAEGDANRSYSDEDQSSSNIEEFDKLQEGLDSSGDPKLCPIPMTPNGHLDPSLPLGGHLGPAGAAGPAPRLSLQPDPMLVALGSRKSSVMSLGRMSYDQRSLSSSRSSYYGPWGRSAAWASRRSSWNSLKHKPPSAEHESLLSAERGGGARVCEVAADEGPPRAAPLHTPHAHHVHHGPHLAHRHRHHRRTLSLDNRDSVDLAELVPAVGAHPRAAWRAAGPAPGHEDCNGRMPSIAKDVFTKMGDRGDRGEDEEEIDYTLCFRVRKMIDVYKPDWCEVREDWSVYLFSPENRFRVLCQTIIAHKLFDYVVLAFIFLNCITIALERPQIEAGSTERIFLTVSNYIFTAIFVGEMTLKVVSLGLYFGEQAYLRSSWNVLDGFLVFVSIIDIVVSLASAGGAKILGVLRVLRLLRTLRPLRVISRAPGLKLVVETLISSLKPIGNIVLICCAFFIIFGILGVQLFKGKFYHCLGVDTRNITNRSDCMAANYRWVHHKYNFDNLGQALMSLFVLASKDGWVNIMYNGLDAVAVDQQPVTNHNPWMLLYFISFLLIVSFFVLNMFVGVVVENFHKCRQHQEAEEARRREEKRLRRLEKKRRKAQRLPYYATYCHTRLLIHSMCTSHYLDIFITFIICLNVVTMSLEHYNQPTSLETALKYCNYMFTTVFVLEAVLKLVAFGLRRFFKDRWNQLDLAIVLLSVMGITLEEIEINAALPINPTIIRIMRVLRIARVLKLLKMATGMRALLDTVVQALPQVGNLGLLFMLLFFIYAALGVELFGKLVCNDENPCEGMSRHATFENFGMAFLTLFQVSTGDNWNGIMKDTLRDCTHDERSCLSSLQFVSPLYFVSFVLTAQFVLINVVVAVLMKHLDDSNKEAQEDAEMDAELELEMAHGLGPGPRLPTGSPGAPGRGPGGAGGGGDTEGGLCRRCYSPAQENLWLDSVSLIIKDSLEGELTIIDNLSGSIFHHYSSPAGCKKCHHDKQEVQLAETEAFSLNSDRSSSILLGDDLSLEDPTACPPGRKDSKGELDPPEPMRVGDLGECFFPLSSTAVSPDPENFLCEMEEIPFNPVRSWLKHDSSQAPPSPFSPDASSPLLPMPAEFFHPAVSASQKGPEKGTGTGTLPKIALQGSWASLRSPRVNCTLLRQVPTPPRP
α1I T-type calcium channel, sequence (Q9P0X4 1-1981 isoform Q9P0X4-3 I1005V): as above

As a reminder, the IC50 is the concentration that gives 50% inhibition. `COCCOC(=O)C1=C(C)NC(C)=C(C(=O)OC(C)C)C1c1cccc([N+](=O)[O-])c1` (centres unmarked) [Nimodipine]: the half-maximal inhibitory concentration (IC50) in assay [1] came to 9.51 ± 0.788 µM.

In the case of `CC1(C)OC(=O)NC1=O` [dimethadione], in assay [2], the “effect on T-type currents in thalamic neurons (in words)” value is “partially depress”.

For orientation: EC50 means the concentration giving half of the maximal effect. `[Ca+2]` [Ca^2+]: in assay [1] (B21 cells induced by 0.1 μM tetracycline, read-out: EC50 of Ca^2+ influx after Ca^2+ addition), the EC50 is 1000 µM.

Regarding `CCC1(C)CC(=O)NC1=O` (centres unmarked) [ethosuximide], the “effect on T-type Ca^2+ current in DRG neurons (in words)” value in assay [3] is reported as “fully block”. Also, the “effect on T-type currents in thalamic neurons (in words)” value in assay [2] was “partially depress”.

Turning to `O=c1[nH]c2ccccc2n1C1CCN(CCCC(c2ccc(F)cc2)c2ccc(F)cc2)CC1` [Pimozide], the IC50 in assay [1] stood at 1 ± 0.109 µM. Also, the “% Inhibition (Ave ± SEM) of peak calcium current” value in assay [4] (100 nM antagonist, −100 mV holding potential) is 32 ± 2%. In addition, the potency estimated from few doses in assay [4] (read-out: Est IC50) is 0.216 µM.

(Values after patent US20080248040A1, “Nucleic Acid Molecules Encoding Novel Human Low-Voltage Activated Calcium Channel Proteins, Designed-Alpha 1I-1 and Alpha 1I-2, Encoded Proteins and Methods of Use Thereof” (priority 2003, published 2008).)
